Source: US20230233569A1 (Revolution Medicines, Inc., priority 2020, published 2023)
pIC50: −log10 of the molar value. Where two headings read alike, the source gives them in different places.

Tests used:
NCI-H358 (K-Ras G12C) = assay: CellTiter-Glo cell viability assay; format: cell-based; conditions: Homo sapiens, NCI-H358, 120 h
Summary of the method: (§1)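 Compounds dispensed directly onto seeded AsPC-1 (K-Ras G12D) or NCI-H358 (K-Ras G12C) cells; CellTiter-Glo luminescence read on day 5 after ~30 min equilibration to room temperature. Signal normalized to DMSO average (%) and fit by four-parameter logistic.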

[1] = tested on: 4EBP1 (Thr37/46) phosphorylation (mTORC1) in MDA-MB-468 cells; assay: Cell based AlphaLISA assay, mTOR kinase cellular assay: inhibition of p-4E-BP1 (T37/46) in MDA-MB-468 cells; conditions: Homo sapiens, read-out: pIC50 for Inhibition of mTORC1 and mTORC2 Substarte Phosphorylation p-4E-BP1-(T37/46) (converted)
Experimental: (§2) Cell Based AlphaLISA Assays for Determining IC50 For Inhibition of P-Akt (S473), P-4E-BP1 (T37/46), and P-P70S6K (T389) in MDA-MB-468 Cells
(§3) mTOR Kinase Cellular Assay
(§4) To measure functional activity of mTORC1 and mTORC2 in cells the phosphorylation of 4EBP1 (Thr37/46) and P70S6K (Thr389), and AKT1/2/3 (Ser473) was monitored using AlphaLisa SureFire Ultra Kits (Perkin Elmer). MDA-MB-468 cells (ATCC® HTB-132) were cultured in 96-well tissue culture plates and treated with compounds in the disclosure at concentrations varying from 0.017-1,000 nM for two to four hours at 37° C. Incubations were terminated by removal of the assay buffer and addition of lysis buffer provided with the assay kit. Samples were processed according to the manufacturer's instructions. The Alpha signal from the respective phosphoproteins was measured in duplicate using a microplate reader (Envision, Perkin-Elmer or Spectramax M5, Molecular Devices). Inhibitor concentration response curves were analyzed using normalized IC50 regression curve fitting with control based normalization.

[2] = tested on: AKT1/2/3 (Ser473) phosphorylation (mTORC2) in MDA-MB-468 cells; assay: Cell based AlphaLISA assay, mTOR kinase cellular assay: inhibition of p-Akt (S473) in MDA-MB-468 cells; conditions: Homo sapiens, read-out: pIC50 for Inhibition of mTORC1 and mTORC2 Substarte Phosphorylation p-AKT1/2/3-(S473) (converted)
Experimental: as §2, §3, §4

AsPC-1 (K-Ras G12D) = assay: CellTiter-Glo cell viability assay; format: cell-based; conditions: Homo sapiens, ASPC1, 120 h
Summary of the method: as §1

KRAS G12D = KRAS G12D (Homo sapiens, UniProt P01116+P62937, G12D); assay: Ras-Raf disruption / FRET / MOA assay (BRAF RBD); format: biochemical; conditions: KRAS G12D FRET data IC50, Ras-Raf disruption, with Cyclophilin A
Summary of the method: (§5)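 TR-FRET in 25 mM HEPES pH 7.3, 100 mM NaCl, 5 mM MgCl2, 0.1% BSA, 0.002% Tween20 with 25 μM Cyclophilin A, 12.5 nM His6-Ras-GMPPNP, 50 nM GST-BRAF RBD; compound 10-point 3-fold series from 30 μM. After 3 h at 25 °C, Eu anti-His/APC anti-GST added for 1.5 h; IC50 from ratio decrease versus DMSO.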

KRAS G12S = KRAS G12S (Homo sapiens, UniProt P01116+P62937, G12S); assay: Ras-Raf disruption / FRET / MOA assay (BRAF RBD); format: biochemical; conditions: KRAS G12S FRET data IC50, Ras-Raf disruption, with Cyclophilin A
Summary of the method: as §5

KRAS G12V = KRAS G12V (Homo sapiens, UniProt P01116+P62937, G12V); assay: Ras-Raf disruption / FRET / MOA assay (BRAF RBD); format: biochemical; conditions: KRAS G12V FRET data IC50, Ras-Raf disruption, with Cyclophilin A
Summary of the method: as §5

KRAS G13C = KRAS G13C (Homo sapiens, UniProt P01116+P62937, G13C); assay: Ras-Raf disruption / FRET / MOA assay (BRAF RBD); format: biochemical; conditions: KRAS G13C FRET data IC50, Ras-Raf disruption, with Cyclophilin A
Summary of the method: as §5

KRAS G13D = KRAS G13D (Homo sapiens, UniProt P01116+P62937, G13D); assay: Ras-Raf disruption / FRET / MOA assay (BRAF RBD); format: biochemical; conditions: KRAS G13D FRET data IC50, Ras-Raf disruption, with Cyclophilin A
Summary of the method: as §5

KRAS WT = KRAS WT (Homo sapiens, UniProt P01116+P62937); assay: Ras-Raf disruption / FRET / MOA assay (BRAF RBD); format: biochemical; conditions: KRAS WT FRET data IC50, Ras-Raf disruption, with Cyclophilin A
Summary of the method: as §5

NRAS G12C = NRAS G12C (Homo sapiens, UniProt P01111+P62937, G12C); assay: Ras-Raf disruption / FRET / MOA assay (BRAF RBD); format: biochemical; conditions: NRAS G12C FRET data IC50, NRAS G12C
Summary of the method: as §5

KRAS G12C = KRAS G12C (Homo sapiens, UniProt P01116+P62937, G12C); assay: Ras-Raf disruption / FRET / MOA assay (BRAF RBD); format: biochemical; conditions: KRAS G12C FRET data IC50, Ras-Raf disruption, with Cyclophilin A
Summary of the method: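 His6-K-Ras G12C-GMPPNP (12.5 nM), GST-BRAF RBD (50 nM) and tagless Cyclophilin A (25 μM) incubated 3 h at 25 °C with compound (10-point 3-fold series from 30 μM), pH 7.3 HEPES buffer. Anti-His Eu/anti-GST APC added for 1.5 h; decreased TR-FRET ratio vs DMSO gives IC50.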

[3] = read-out: H358 Cell Viability assay data IC50, K-Ras G12C, 5-day treatment

Sequence of KRAS G12S (P01116 1-169 isoform P01116-2 G12S limits assumed): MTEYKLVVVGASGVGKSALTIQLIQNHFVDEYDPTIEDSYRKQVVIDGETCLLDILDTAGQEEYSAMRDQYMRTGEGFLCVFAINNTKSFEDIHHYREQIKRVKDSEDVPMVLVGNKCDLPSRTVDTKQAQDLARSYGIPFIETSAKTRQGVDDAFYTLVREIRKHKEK
Sequence of KRAS G12S (P62937 whole entry): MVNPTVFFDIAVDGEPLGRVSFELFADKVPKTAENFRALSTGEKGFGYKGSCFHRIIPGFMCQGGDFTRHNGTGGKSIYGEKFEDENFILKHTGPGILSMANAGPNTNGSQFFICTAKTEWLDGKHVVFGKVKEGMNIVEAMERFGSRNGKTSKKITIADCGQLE
Sequence of KRAS G13D (P01116 1-169 isoform P01116-2 G13D limits assumed): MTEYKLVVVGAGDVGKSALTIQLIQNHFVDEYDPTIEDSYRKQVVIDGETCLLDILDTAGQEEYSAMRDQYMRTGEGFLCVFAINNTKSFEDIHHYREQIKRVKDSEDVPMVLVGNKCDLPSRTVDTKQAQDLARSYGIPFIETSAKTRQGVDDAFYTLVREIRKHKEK
Sequence of KRAS G13D (P62937 whole entry): as the sequence (P62937 whole entry) above
Sequence of KRAS G12C (P01116 1-169 isoform P01116-2 G12C limits assumed): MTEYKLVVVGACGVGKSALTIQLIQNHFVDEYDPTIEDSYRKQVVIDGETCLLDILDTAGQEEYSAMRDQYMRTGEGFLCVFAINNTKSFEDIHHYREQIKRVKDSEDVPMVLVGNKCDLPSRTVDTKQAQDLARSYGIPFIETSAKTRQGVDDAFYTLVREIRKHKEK
Sequence of KRAS G12C (P62937 whole entry): as the sequence (P62937 whole entry) above
Sequence of KRAS WT (P01116 1-169 isoform P01116-2 limits assumed): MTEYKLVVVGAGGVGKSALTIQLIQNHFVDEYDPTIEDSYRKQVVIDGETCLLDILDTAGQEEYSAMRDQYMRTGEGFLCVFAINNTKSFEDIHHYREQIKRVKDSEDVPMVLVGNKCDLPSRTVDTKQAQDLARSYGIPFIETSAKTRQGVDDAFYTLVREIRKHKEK
Sequence of KRAS WT (P62937 whole entry): as the sequence (P62937 whole entry) above
Sequence of NRAS G12C (P01111 whole entry G12C): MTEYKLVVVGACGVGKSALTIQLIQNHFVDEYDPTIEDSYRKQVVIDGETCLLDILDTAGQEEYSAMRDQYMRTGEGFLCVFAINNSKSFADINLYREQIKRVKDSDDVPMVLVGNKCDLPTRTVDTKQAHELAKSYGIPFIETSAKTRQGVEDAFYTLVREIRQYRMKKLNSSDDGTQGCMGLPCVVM
Sequence of NRAS G12C (P62937 whole entry): as the sequence (P62937 whole entry) above
Sequence of KRAS G12D (P01116 1-169 isoform P01116-2 G12D limits assumed): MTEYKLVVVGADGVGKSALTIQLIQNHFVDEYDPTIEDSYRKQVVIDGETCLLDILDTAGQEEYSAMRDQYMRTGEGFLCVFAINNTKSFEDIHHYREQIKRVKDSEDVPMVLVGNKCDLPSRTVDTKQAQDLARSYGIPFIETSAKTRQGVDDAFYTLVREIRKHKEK
Sequence of KRAS G12D (P62937 whole entry): as the sequence (P62937 whole entry) above
Sequence of KRAS G12V (P01116 1-169 isoform P01116-2 G12V limits assumed): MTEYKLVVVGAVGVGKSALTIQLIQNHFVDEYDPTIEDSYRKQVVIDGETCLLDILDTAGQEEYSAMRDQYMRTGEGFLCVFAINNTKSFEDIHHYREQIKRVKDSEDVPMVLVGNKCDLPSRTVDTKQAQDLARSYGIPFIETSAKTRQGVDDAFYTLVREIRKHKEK
Sequence of KRAS G12V (P62937 whole entry): as the sequence (P62937 whole entry) above
Sequence of KRAS G13C (P01116 1-169 isoform P01116-2 G13C limits assumed): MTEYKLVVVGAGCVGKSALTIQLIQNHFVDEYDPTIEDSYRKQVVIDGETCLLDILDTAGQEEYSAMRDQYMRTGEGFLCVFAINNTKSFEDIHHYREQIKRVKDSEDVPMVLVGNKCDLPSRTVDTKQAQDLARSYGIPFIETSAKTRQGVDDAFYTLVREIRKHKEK
Sequence of KRAS G13C (P62937 whole entry): as the sequence (P62937 whole entry) above

Structure (SMILES) | IC50 [1] [nM] | IC50 [2] [nM] | also measured
CCn1c(-c2cccnc2COC)c2c3cc(ccc31)-c1cc(O)cc(c1)C[C@H](NC(=O)[C@H](C(C)C)N(C)C(=O)CCNC(=O)NCCCl)C(=O)N1CCC[C@H](N1)C(=O)OCC(C)(C)C2 [Example 25] | – | – | pIC50 (NCI-H358 (K-Ras G12C); [3]): < 5.00
CO[C@H]1C[C@@H]2CC[C@@H](C)[C@@](O)(O2)C(=O)C(=O)N2CCCC[C@H]2C(=O)O[C@H]([C@H](C)C[C@@H]2CC[C@@H](OC(=O)NCc3cnc(N4CCN(C(=O)CCOCCN5CCN(c6ncc(C(=O)NCCCCn7nc(-c8ccc9oc(N)nc9c8)c8c(N)ncnc87)cn6)CC5)CC4)nc3)[C@H](OC)C2)CC(=O)[C@H](C)/C=C(\C)[C@@H](O)[C@@H](OC)C(=O)[C@H](C)C[C@H](C)/C=C/C=C/C=C/1C [Example 54] | ≤ 3.16 | ≤ 3.16 | –
CO[C@H]1C[C@@H]2CC[C@@H](C)[C@@](O)(O2)C(=O)C(=O)N2CCCC[C@H]2C(=O)O[C@H]([C@H](C)C[C@@H]2CC[C@@H](OC(=O)NCCOCCOCCOCCOCCOCCOCCOCCOCCC(=O)NCc3ccc(Cn4nc(-c5ccc6oc(N)nc6c5)c5c(N)ncnc54)cc3)[C@H](OC)C2)C[C@H](N=[N+]=[N-])[C@H](C)/C=C(\C)[C@@H](O)[C@@H](OC)C(=O)[C@H](C)C[C@H](C)/C=C/C=C/C=C/1C [Example 82] | ≤ 3.16 | – | –
CO[C@H]1C[C@@H]2CC[C@@H](C)[C@@](O)(O2)C(=O)C(=O)N2CCCC[C@H]2C(=O)O[C@H]([C@H](C)C[C@@H]2CC[C@@H](OC(=O)NCc3cnc(N4CCN(C(=O)CN(C)CC(=O)NCCOCCOCCC(=O)N5CCc6cc(Cn7nc(-c8ccc9oc(N)nc9c8)c8c(N)ncnc87)ccc6C5)CC4)nc3)[C@H](OC)C2)C[C@@H](OC)[C@H](C)/C=C(\C)[C@@H](O)[C@@H](OC)C(=O)[C@H](C)C[C@H](C)/C=C/C=C/C=C/1C [Example 103] | > 1000 | > 1000 | –
CO[C@H]1C[C@@H]2CC[C@@H](C)[C@@](O)(O2)C(=O)C(=O)N2CCCC[C@H]2C(=O)O[C@H]([C@H](C)C[C@@H]2CC[C@@H](OC(=O)NCc3cnc(N4CCN(c5ncc(C(=O)NCCOCCOCCOCCOCCC(=O)N6CCc7cc(Cn8nc(-c9ccc%10oc(N)nc%10c9)c9c(N)ncnc98)ccc7C6)c(N)n5)CC4)nc3)[C@H](OC)C2)C[C@@H](OC)[C@H](C)/C=C(\C)[C@@H](O)[C@@H](OC)C(=O)[C@H](C)C[C@H](C)/C=C/C=C/C=C/1C [Example 106] | 3.16 to 31.6 | > 1000 | –
CO[C@H]1C[C@@H]2CC[C@@H](C)[C@@](O)(O2)C(=O)C(=O)N2CCCC[C@H]2C(=O)O[C@H]([C@H](C)C[C@@H]2CC[C@@H](OC(=O)NCc3cnc(N4CCN(c5ncc(C(=O)N(C)CCOCCOCCOCCOCCC(=O)N6CCc7cc(Cn8nc(-c9ccc%10oc(N)nc%10c9)c9c(N)ncnc98)ccc7C6)c(N)n5)CC4)nc3)[C@H](OC)C2)C[C@@H](OC)[C@H](C)/C=C(\C)[C@@H](O)[C@@H](OC)C(=O)[C@H](C)C[C@H](C)/C=C/C=C/C=C/1C [Example 107] | > 1000 | > 1000 | –
CO[C@H]1C[C@@H]2CC[C@@H](C)[C@@](O)(O2)C(=O)C(=O)N2CCCC[C@H]2C(=O)O[C@H]([C@H](C)C[C@@H]2CC[C@@H](OC(=O)NCc3cnc(N4CCN(CCOCCN5CCN(c6ncc(C(=O)N7CCc8cc(Cn9nc(-c%10ccc%11oc(N)nc%11c%10)c%10c(N)ncnc%109)ccc8C7)cn6)CC5)CC4)nc3)[C@H](OC)C2)C[C@@H](OC)[C@H](C)/C=C(\C)[C@@H](O)[C@@H](OC)C(=O)[C@H](C)C[C@H](C)/C=C/C=C/C=C/1C [Example 125] | ≤ 3.16 | – | –
CO[C@H]1C[C@@H]2CC[C@@H](C)[C@@](O)(O2)C(=O)C(=O)N2CCCC[C@H]2C(=O)O[C@H]([C@H](C)C[C@@H]2CC[C@@H](OC(=O)N3CCc4nc(N5CCN(CCOCCN6CCN(c7ncc(C(=O)N8CCc9cc(Cn%10nc(-c%11ccc%12oc(N)nc%12c%11)c%11c(N)ncnc%11%10)ccc9C8)cn7)CC6)CC5)ncc4C3)[C@H](OC)C2)C[C@@H](OC)[C@H](C)/C=C(\C)[C@@H](O)[C@@H](OC)C(=O)[C@H](C)C[C@H](C)/C=C/C=C/C=C/1C [Example 126] | 3.16 to 31.6 | – | –
CO[C@H]1C[C@@H]2CC[C@@H](C)[C@@](O)(O2)C(=O)C(=O)N2CCCC[C@H]2C(=O)O[C@H]([C@H](C)C[C@@H]2CC[C@@H](OC(=O)NCc3cnc(N4CCN(C(=O)CCOCCN5CCN(c6ncc(C(=O)N7CCc8cc(Cn9nc(-c%10cnc%11[nH]ccc%11c%10)c%10c(N)ncnc%109)ccc8C7)cn6)CC5)[C@@H](C(=O)O)C4)nc3)[C@H](OC)C2)CC(=O)[C@H](C)/C=C(\C)[C@@H](O)[C@@H](OC)C(=O)[C@H](C)C[C@H](C)/C=C/C=C/C=C/1C [Example 132] | ≤ 3.16 | 3.16 to 31.6 | –
CO[C@H]1C[C@@H]2CC[C@@H](C)[C@@](O)(O2)C(=O)C(=O)N2CCCC[C@H]2C(=O)O[C@H]([C@H](C)C[C@@H]2CC[C@@H](O)[C@H](OC)C2)CC(=O)[C@H](C)/C=C(\C)[C@@H](OC(=O)NCc2cnc(N3CCN(C(=O)CCOCCN4CCN(c5ncc(C(=O)N6CCc7cc(Cn8nc(-c9ccc%10oc(N)nc%10c9)c9c(N)ncnc98)ccc7C6)cn5)CC4)CC3)nc2)[C@@H](OC)C(=O)[C@H](C)C[C@H](C)/C=C/C=C/C=C/1C [Example 133] | ≤ 3.16 | – | –
CCn1c(-c2cccnc2[C@H](C)OC)c2c3cc(ccc31)-c1cc(O)cc(c1)C[C@H](NC(=O)[C@H](C(C)C)N(C)C(=O)CN(C)C(=O)[C@H]1CN1CCOC)C(=O)N1CCC[C@H](N1)C(=O)OCC(C)(C)C2 (stereo partly drawn) [Example 159] | – | – | pIC50 (AsPC-1 (K-Ras G12D); read-out: AsPC-1 Cell Viability assay data IC50, K-Ras G12D, 5-day treatment): 6.00 to 7.00; pIC50 (NCI-H358 (K-Ras G12C); [3]): > 8.00; pIC50 (KRAS G12D): 6.00 to 7.00; pIC50 (KRAS G12S): 7.00 to 8.00; pIC50 (KRAS G12V): 7.00 to 8.00; pIC50 (KRAS G13C): 7.00 to 8.00; pIC50 (KRAS G13D): 6.00 to 7.00; pIC50 (KRAS WT): 7.00 to 8.00; pIC50 (NRAS G12C): > 8.00; pIC50 (KRAS G12C): 7.00 to 8.00
CCn1c(-c2cccnc2[C@H](C)OC)c2c3cc(ccc31)-c1cc(O)cc(c1)C[C@H](NC(=O)[C@H](C(C)C)N(C)C(=O)[C@@]1(C)CCCN1C(=O)[C@@H]1CN1)C(=O)N1CCC[C@H](N1)C(=O)OCC(C)(C)C2 [Example 241] | – | – | pIC50 (AsPC-1 (K-Ras G12D); K-Ras G12D, 5-day treatment, read-out: AsPC-1 Cell Viability assay data IC50): 6.00 to 7.00; pIC50 (NCI-H358 (K-Ras G12C); K-Ras G12C, 5-day treatment, read-out: H358 Cell Viability assay data IC50): > 8.00
